Assay results from patent US11040981B2, “Pyrrolotriazine compounds and methods of inhibiting TAM kinases” (Syros Pharmaceuticals, Inc., priority 2017, dated 2021).

Experiments:
TYRO3 = target: T1, TYRO3 (Homo sapiens, UniProt Q06418); experiment: TR-FRET kinase activity assay, TYRO3; type: biochemical; settings: ATP at Km, 60 minutes
T1 sequence (Q06418 41-890): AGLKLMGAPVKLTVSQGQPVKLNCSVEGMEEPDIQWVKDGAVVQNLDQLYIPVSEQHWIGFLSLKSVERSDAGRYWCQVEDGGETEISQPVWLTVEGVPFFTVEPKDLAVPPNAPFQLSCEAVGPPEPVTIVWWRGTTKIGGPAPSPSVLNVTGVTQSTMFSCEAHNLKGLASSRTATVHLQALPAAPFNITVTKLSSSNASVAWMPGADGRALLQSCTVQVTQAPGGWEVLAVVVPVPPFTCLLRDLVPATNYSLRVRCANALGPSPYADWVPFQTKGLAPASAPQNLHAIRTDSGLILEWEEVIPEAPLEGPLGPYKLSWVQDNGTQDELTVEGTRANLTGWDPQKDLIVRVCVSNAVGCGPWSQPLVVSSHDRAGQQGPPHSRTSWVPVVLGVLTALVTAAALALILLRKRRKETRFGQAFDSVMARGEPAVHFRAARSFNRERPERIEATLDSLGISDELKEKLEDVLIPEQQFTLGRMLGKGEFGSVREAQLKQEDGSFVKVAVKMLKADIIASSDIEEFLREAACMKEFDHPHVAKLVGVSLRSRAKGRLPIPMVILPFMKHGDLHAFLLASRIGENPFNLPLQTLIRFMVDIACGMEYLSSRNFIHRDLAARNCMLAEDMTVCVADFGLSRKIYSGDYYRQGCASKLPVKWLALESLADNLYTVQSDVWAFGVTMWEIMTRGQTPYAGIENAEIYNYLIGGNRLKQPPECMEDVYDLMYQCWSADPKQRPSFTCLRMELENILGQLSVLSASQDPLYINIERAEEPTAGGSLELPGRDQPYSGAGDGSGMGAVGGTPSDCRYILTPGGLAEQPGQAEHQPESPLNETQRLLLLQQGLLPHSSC
Description: IC50 values for compound inhibition of AXL, FLT3, MERTK and TYRO3 activity were determined by using a TR-FRET activity assay. A polypeptide substrate with a fluorescent label is phosphorylated on a tyrosine by each enzyme, where the now phosphorylated product is bound by a Europium-labeled antibody specific to that phosphorylation site. The proximity between the antibody and the substrate gives a signal known as TR-FRET. As the enzyme is inhibited by compound, less phosphorylated peptide product is made causing a decrease in overall signal.
Activity assays were performed in a 384-well, small volume, black microplates in an active enzyme volume of 10 μL and final developed volume of 20 μL. Final assay conditions are 50 mM HEPES pH 7.5, 10 mM MgCl2, 1 mM EGTA, 0.01% Brij 35 and 1 mM DTT all at RT. Enzyme, substrate labeled peptide and compound are mixed, and then the reaction is initiated with the addition of ATP at Km concentration for each enzyme. The reaction is allowed to run 60 minutes and then quenched with a 12.5 mM EDTA (ethylenediamine tetraacetic acid) solution. The plate is then developed with the addition of Europium labeled antibody for a final volume of 20 μL and is then incubated for 30 minutes in darkness. Plates are read in a Pherastar plate reader. Data is analyzed in GraphPad PRISM.
The results of these assays are shown in Table 1, below, wherein “No.” designates compound number (FIG. 1); “A” represents a value of ≤100 nM; “B” a value of >100 nM and ≤1 μM; “C” a value of >1 μM and ≤10 μM; “D” a value of >10 μM; “ND” is not determined. The ratio of Mer to FLT3 is calculated as follows: FLT3 IC50/Mer IC50. “+” represents a ratio of >2.0 and <10; “++” represents a ratio of between 10 and 100; and “+++” represents a ratio of >100.

FLT3 = target: T2, FLT3 (Homo sapiens, UniProt P36888); experiment: TR-FRET kinase activity assay, FLT3; type: biochemical; settings: ATP at Km, 60 minutes
T2 sequence (P36888 27-993): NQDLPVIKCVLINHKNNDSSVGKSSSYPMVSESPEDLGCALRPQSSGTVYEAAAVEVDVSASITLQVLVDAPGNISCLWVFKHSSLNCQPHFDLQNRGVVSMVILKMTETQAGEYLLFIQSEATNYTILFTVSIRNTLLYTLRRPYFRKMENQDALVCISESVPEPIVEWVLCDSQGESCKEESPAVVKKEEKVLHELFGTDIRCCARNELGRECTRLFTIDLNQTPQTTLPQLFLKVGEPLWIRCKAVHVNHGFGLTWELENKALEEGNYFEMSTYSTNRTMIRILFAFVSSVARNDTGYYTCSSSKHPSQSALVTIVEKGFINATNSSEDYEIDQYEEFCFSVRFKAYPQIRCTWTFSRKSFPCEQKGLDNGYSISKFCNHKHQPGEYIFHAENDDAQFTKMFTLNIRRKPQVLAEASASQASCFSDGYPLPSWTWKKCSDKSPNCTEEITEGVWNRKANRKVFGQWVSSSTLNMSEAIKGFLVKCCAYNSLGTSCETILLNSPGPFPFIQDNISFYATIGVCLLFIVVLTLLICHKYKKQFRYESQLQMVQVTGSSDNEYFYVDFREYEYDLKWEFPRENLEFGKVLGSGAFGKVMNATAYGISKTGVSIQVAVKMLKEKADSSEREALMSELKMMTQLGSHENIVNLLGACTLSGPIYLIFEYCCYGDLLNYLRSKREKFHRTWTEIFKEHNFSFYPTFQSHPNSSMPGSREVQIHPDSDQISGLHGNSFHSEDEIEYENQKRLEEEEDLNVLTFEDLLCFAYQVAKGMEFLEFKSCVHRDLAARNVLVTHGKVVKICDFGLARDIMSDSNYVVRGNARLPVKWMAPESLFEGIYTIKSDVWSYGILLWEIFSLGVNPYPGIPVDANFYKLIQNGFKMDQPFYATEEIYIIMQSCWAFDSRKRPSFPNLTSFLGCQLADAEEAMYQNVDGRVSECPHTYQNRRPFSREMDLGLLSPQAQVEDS
Procedure, shortened: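 IC50 reflects the drop in TR-FRET between Eu anti-phosphotyrosine antibody and labelled peptide after a 60-minute room-temperature reaction. Buffer was 50 mM HEPES pH 7.5 with 10 mM MgCl2, 1 mM EGTA, 0.01% Brij 35 and 1 mM DTT, with ATP at Km per enzyme and EDTA quench.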

| Structure (SMILES) | IC50 (TYRO3) | IC50 (FLT3) |
| --- | --- | --- |
| COC[C@H](C)Nc1ncc2c(-c3ccnc(N4CCOCC4)c3)cc([C@H]3CC[C@H](O)CC3)n2n1 [Compound 259] | ≤ 100 nM | 100 to 1000 nM |
| COC[C@H](C)Nc1ncc2c(-c3cn(C)nc3C)cc([C@H]3CC[C@H](O)CC3)n2n1 [Compound 260] | ≤ 100 nM | 100 to 1000 nM |
| COC[C@H](C)Nc1ncc2c(-c3cnc(C)o3)cc([C@H]3CC[C@H](O)CC3)n2n1 [Compound 261] | ≤ 100 nM | 1000 to 10000 nM |
| COCCn1cc(-c2cc([C@H]3CC[C@H](O)CC3)n3nc(N[C@@H](C)CC(F)(F)F)ncc23)cn1 [Compound 262] | ≤ 100 nM | ≤ 100 nM |
| CNC(=O)c1ccc(-c2cc([C@H]3CC[C@H](O)CC3)n3nc(N[C@@H](C)CC(F)(F)F)ncc23)cn1 [Compound 263] | ≤ 100 nM | ≤ 100 nM |
| COC[C@H](C)Nc1ncc2c(-c3cnn(CC(C)(C)O)c3)cc([C@H]3CC[C@H](O)CC3)n2n1 [Compound 264] | ≤ 100 nM | 1000 to 10000 nM |
| COC[C@H](C)Nc1ncc2c(-c3cnn(C(C)(C)CO)c3)cc([C@H]3CC[C@H](O)CC3)n2n1 [Compound 265] | ≤ 100 nM | 1000 to 10000 nM |
| COC[C@H](C)Nc1ncc2c(-c3cnn(CC4(C#N)CC4)c3)cc([C@H]3CC[C@H](O)CC3)n2n1 [Compound 266] | ≤ 100 nM | 100 to 1000 nM |
| COC[C@H](C)Nc1ncc2c(-c3cnnc(C)c3)cc([C@H]3CC[C@H](O)CC3)n2n1 [Compound 267] | ≤ 100 nM | 1000 to 10000 nM |
| Cc1cc(-c2cc([C@H]3CC[C@H](O)CC3)n3nc(N[C@@H](C)CC(F)(F)F)ncc23)cnn1 [Compound 268] | ≤ 100 nM | 100 to 1000 nM |
| C[C@@H](CC(F)(F)F)Nc1ncc2c(-c3cnn(C4COC4)c3)cc([C@H]3CC[C@H](O)CC3)n2n1 [Compound 269] | ≤ 100 nM | ≤ 100 nM |
| C[C@@H](COC(F)F)Nc1ncc2c(-c3cnn(C4COC4)c3)cc([C@H]3CC[C@H](O)CC3)n2n1 [Compound 270] | ≤ 100 nM | ≤ 100 nM |
| COC[C@H](C)Nc1ncc2c(-c3ccc(N4CCN(C)CC4)nc3)cc([C@H]3CC[C@H](O)CC3)n2n1 [Compound 271] | ≤ 100 nM | ≤ 100 nM |
